Broadly, the inhibition is the relative decrease from the control value, in per cent.

Holding throughout (format): biochemical
Assay [1] has as its target T1, Cynomolgus Monkey Testicular C17-20 Lyase (Macaca fascicularis, UniProt Q2XVA1).
T1 construct: Microsomes are isolated from human or cynomolgus monkey tissue; from tissue; host or cells: cynomolgus monkey testis, microsomes
T1 sequence (Q2XVA1 1-508): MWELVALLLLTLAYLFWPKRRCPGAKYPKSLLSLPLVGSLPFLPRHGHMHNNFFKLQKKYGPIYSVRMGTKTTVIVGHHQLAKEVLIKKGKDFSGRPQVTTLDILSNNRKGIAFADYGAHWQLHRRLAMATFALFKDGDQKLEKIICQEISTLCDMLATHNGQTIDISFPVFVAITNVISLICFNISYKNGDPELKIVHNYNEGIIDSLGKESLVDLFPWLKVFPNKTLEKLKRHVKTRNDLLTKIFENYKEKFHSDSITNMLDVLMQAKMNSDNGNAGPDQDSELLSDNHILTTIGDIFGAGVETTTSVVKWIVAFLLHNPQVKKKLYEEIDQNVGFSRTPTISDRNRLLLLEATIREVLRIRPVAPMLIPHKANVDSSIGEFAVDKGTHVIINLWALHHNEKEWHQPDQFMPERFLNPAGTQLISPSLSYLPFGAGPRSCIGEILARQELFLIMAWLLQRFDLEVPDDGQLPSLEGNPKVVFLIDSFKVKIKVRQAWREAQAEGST
The experiment in a line: Screen for time-dependent inhibition / inhibition of cynomolgus monkey testicular C17-20 lyase (microsomal preparation). On the procedure: (§1) Utilizing an in vitro assay, the activity of the compounds of formulas (I) and (II) as inhibitors of steroid C17-20 lyase are established using microsomal preparations of the enzyme from human or cynomolgus monkey testicular tissue. Human testes were acquired from therapeutic orchiectomies. Microsomes are isolated from human or cynomolgus monkey tissue. The compound to be tested is dissolved in dimethyl sulfoxide and diluted in 0.05M potassium phosphate buffer, pH 7.4, to give the desired concentrations of test compound. Assays contain an NADPH regenerating system comprised of 1 mM NADPH, 5 mM glucose-6-phosphate, 1 IU/mL glucose-6-phosphate dehydrogenase and microsomal protein in a total volume of 0.2 mL. Control assays contain all components, including dimethyl sulfoxide, but no test compound. All assays are performed in duplicate. For determination of time dependent C17-20 lyase inactivation, the test compound is incubated with 20 to 62 μg/mL microsomal protein, buffer and the NADPH regenerating system described above at 34° C. for 0 or 40 minutes. Aliquots of 180 μL are then removed and assayed for enzyme activity by addition to 7-^3 H-17α-hydroxypregnenolone (11.2 mCi/mmole; 0.2 μCi per assay) plus unlabeled 17α-hydroxypregnenolone to give a total substrate concentration of 1.0 μM or 0.3 μM per assay and are subsequently incubated at 34° C. for 6 minutes. For determination of reversible inhibition by the test compound, the reaction is initiated by the addition of substrate, 7-^3 H-17α-hydroxypregnenolone (11.2 mCi/mmole; 0.20 μCi per assay) plus unlabeled 17α-hydroxypregnenolone to yield a final concentration of 0.3 μM (=Km), to the other assay components. The complete assay is incubated at 34° C. for 6 minutes. Each assay is terminated by addition of 5 mL of chloroform/methanol (2:1). Carrier steroids representing substrates and products (17α-hydroxypregnenolone, dehydroepiandrosterone, and androst-5-ene-3β,17β-diol and 0.8 mL of distilled, deionized water are also added at this time. The steroids are extracted by the method of Moore and Wilson (Methods in Enzymol., eds. O'Malley, B. W. and Hardman, J. G. 36, 1975, pp.466-474). The organic phase containing the steroids is evaporated using nitrogen gas, the residue is dissolved in 18% tetrahydrofuran (v/v) in hexane and the steroids are separated by HPLC on an Si60 (5 μm) column (250×4 mm) using a gradient of 18-22% tetrahydrofuran (v/v) in hexane. Radioactivity in the steroid peaks is measured using a Radiometric Model HS or Model A515 Flo-One detector.
(§2) The enzyme activity for each assay is calculated from the percent conversion of substrate to products, and the results are expressed as percent inhibition of control.

Assay [2] addresses T2, Human Testicular C17-20 Lyase (Homo sapiens, UniProt P05093).
T2 construct: Microsomes are isolated from human or cynomolgus monkey tissue; from tissue; host or cells: human testes from therapeutic orchiectomies, microsomes
T2 sequence (P05093 1-508): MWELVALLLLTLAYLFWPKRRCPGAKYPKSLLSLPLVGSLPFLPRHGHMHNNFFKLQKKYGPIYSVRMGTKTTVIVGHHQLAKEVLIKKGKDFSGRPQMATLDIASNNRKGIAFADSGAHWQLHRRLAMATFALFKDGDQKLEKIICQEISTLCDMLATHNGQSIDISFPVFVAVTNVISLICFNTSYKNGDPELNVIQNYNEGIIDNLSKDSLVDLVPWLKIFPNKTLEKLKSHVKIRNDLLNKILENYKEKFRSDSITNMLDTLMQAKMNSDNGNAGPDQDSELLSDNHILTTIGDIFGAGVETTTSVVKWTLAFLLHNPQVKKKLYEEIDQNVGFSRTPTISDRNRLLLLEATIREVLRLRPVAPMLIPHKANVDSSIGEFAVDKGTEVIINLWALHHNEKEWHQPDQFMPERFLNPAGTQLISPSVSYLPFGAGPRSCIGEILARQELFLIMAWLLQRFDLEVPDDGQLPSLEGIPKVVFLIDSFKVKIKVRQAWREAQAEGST
Kind of assay: Screen for time-dependent inhibition of human testicular C17-20 lyase (microsomal preparation). How it is done:
as §1, §2

In assay [3] the target is T1, Cynomolgus Monkey Testicular C17-20 Lyase. The experiment in a line: Screen for inhibition of cynomolgus monkey testicular C17-20 lyase by compounds of formula (II). On the procedure: as §1, §2

Turning to `C[C@]12CCC(=O)CC1=CC[C@@H]1[C@@H]2CC[C@]2(C)C(c3csc(N)n3)=CC[C@@H]12` [17-(2-amino-4-thiazolyl)-androsta-5,16-dien-3-one], in assay [1] (preincubation 0 min), at 1 µM the inhibition was 66% and the inhibition at 10 µM amounted to 92%.
In assay [2] (preincubation 0 min), `C[C@]12CC[C@H](O)CC1=CC[C@@H]1[C@@H]2CC[C@]2(C)C(c3csc(N)n3)=CC[C@@H]12` [(3β)-17-(2-amino-4-thiazolyl)-androsta-5,16-dien-3-ol.HBr.CH3 CH2 OH] yielded an inhibition at 1 µM of 44% and an inhibition at 10 µM of 62%. In assay [2] (preincubation 40 min), this molecule came in with an inhibition at 1 µM of 32% and an inhibition at 10 µM of 29%.
Consider `C[C@]12CC[C@H](O)CC1=CC[C@@H]1[C@@H]2CC[C@]2(C)C(c3cccs3)=CC[C@@H]12` [17-(2-thienyl)androsta-5,16-dien-3β-ol, (3β)-17-(2-thienyl)-androsta-5,16-dien-3-ol], for which, in assay [3], testing at 0.1 µM gave an inhibition of 43% and at 1 µM the inhibition was 75%.
The corresponding values for `C[C@]12CC[C@H](O)CC1=CC[C@@H]1[C@@H]2CC[C@]2(C)C(c3ccco3)=CC[C@@H]12` [17-(2-furanyl)androsta-5,16-dien-3β-ol, (3β)-17-(2-furanyl)-androsta-5,16-dien-3-ol] are 10% and 72%.
As to `C[C@]12CC[C@H](O)CC1=CC[C@@H]1[C@@H]2CC[C@]2(C)C(c3ccoc3)=CC[C@@H]12` [17-(3-furanyl)androsta-5,16-dien-3β-ol, (3β)-17-(3-furanyl)-androsta-5,16-dien-3-ol], in assay [3], the inhibition at 0.1 µM amounted to 53% and testing at 1 µM gave an inhibition of 91%.
`C[C@]12CC[C@H](O)CC1=CC[C@@H]1[C@@H]2CC[C@]2(C)C(c3ccsc3)=CC[C@@H]12` [17-(3-thienyl)androsta-5,16-dien-3β-ol, (3β)-17-(3-thienyl)-androsta-5,16-dien-3-ol]: in assay [3], testing at 0.1 µM gave an inhibition of 21% and 1 µM produced 42% inhibition.
On to `CNc1nc(C2=CC[C@H]3[C@@H]4CC=C5C[C@@H](O)CC[C@]5(C)[C@H]4CC[C@]23C)cs1` [(3β)-17-[2-(methylamino)-4-thiazolyl]-androsta-5,16-dien-3-ol.HBr], for which the inhibition at 1 µM in assay [1] (preincubation 0 min) turned out to be 28%; in assay [1] (preincubation 40 min), 26%. Moreover, the figures for the inhibition at 10 µM in assay [1] (preincubation 0 min) and in assay [1] (preincubation 40 min) were 40% and 80%, respectively.

The values above are taken from patent US5677293A, “16 unsaturated C17 heterocyclic steroids useful as steroid C17-20 lyase inhibitors” (Merrell Pharmaceuticals Inc., priority 1996, dated 1997).
